Legend:
[1] = test system: diamond back moth (Plutella xylostella); type: in vivo; conditions: 1,000 ppm; Chinese cabbage seedling with eggs immersed about 30 seconds; counted six days after the immersion; 25° C.
From the text: Insecticidal effect on diamond back moth (Plutella xylostella)
Adult diamond back moths were released and allowed to oviposit on a Chinese cabbage seedling. […] Six days after the immersion, the hatched insects were counted. […] [formula] Criterion • A - - - Mortality 100% • B - - - Mortality 99-90% • C - - - Mortality 89-80% • D - - - Mortality 79-50%

[2] = test system: Common cutworm (Spodoptera litura); type: in vivo; conditions: 500 ppm; cabbage leaf immersed about 30 seconds; second-instar larvae; eight days after the inoculation; 25° C.
From the text: Insecticidal Effect on Common cutworm (Spodoptera litura)

Row | Compound | insecticidal effect (activity ranking by mortality) [1] | insecticidal effect (activity ranking by mortality) [2]
1 | Cc1cc(C(C)(C)C)sc1NC(=O)c1cccc(I)c1C(=O)NC(C)C [Q1-12] | B or higher | –
2 | Cc1cc(C(C)(C)C)sc1NC(=O)c1c(I)cccc1C(=O)NC(C)C [Q1-41] | B or higher | –
3 | Cc1ccsc1NC(=O)c1c(I)cccc1C(=O)NC(C)C [Q1-42] | B or higher | –
4 | CC(C)NC(=O)c1c(Cl)cccc1C(=O)Nc1cc(-c2ccc(Br)cc2)on1 [Q4-6] | B or higher | –
5 | Cc1c(NC(=O)c2c(Cl)cccc2C(=O)NC(C)C)noc1-c1ccc(Cl)cc1 [Q4-8] | B or higher | –
6 | Cc1c(NC(=O)c2cccc(I)c2C(=O)NC(C)C)noc1C(F)(F)F [Q4-12] | B or higher | –
7 | Cc1c(NC(=O)c2c(I)cccc2C(=O)NC(C)C)noc1C(F)(F)F [Q4-45] | B or higher | –
8 | Cc1cc(NC(=O)c2cccc([N+](=O)[O-])c2C(=O)NC(C)C)n(C)n1 [Q6-6] | B or higher | –
9 | Cc1c(C(F)(F)F)noc1NC(=O)c1cccc(I)c1C(=O)NC(C)C [Q6-8, N^1-(4-methyl-3-trifluoromethyl-isoxazol-5-yl)-N^2-isopropyl-3-iodophthalamide] | B or higher | –
10 | CC(C)NC(=O)c1c(Cl)cccc1C(=O)Nc1nccs1 [Q8-1] | B or higher | –
11 | Cc1csc(NC(=O)c2cccc(Cl)c2C(=O)NC(C)C)n1 [Q8-2] | B or higher | –
12 | CC(C)NC(=O)c1c(Cl)cccc1C(=O)Nc1nc(C(F)(F)F)cs1 [Q8-3] | B or higher | –
13 | CC(C)NC(=O)c1c(Cl)cccc1C(=O)Nc1nc(-c2ccccc2)c(Cl)s1 [Q8-5] | B or higher | –
14 | CCCNC(=O)c1c(Cl)cccc1C(=O)Nc1nc(C)c(Oc2ccccc2)n1C [Q8-11] | B or higher | –
15 | CC(C)NC(=O)c1cccc(Cl)c1C(=O)Nc1nc(C(F)(F)F)cs1 [Q8-13] | B or higher | –
16 | CC(C)NC(=O)c1cccc(Cl)c1C(=O)Nc1nc(-c2ccccc2)cs1 [Q8-14] | B or higher | –
17 | CC(C)NC(=O)c1cccc(Cl)c1C(=O)Nc1nc(-c2ccccc2)c(Cl)s1 [Q8-15] | B or higher | –
18 | CCN(CC)C(=O)c1c(I)cccc1C(=O)Nc1nc(-c2ccc(Cl)cc2)cs1 [Q8-53] | B or higher | –
19 | Cc1sc(I)nc1NC(=O)c1cccc(I)c1C(=O)NC(C)C [Q9-15] | B or higher | –
20 | Cc1ncoc1NC(=O)c1cccc(I)c1C(=O)NC(C)C [Q10-7] | B or higher | –
21 | CC(C)NC(=O)c1c(I)cccc1C(=O)Nn1cnnc1 [Q15-1] | B or higher | –
22 | Cc1cc(C(F)(C(F)(F)F)C(F)(F)F)cnc1NC(=O)c1cccc(I)c1C(=O)NC(C)C [Q26-11] | B or higher | B or higher
23 | CSCC(C)(C)NC(=O)c1c(I)cccc1C(=O)Nc1cnc(C(F)(C(F)(F)F)C(F)(F)F)cc1C [Q27-150] | B or higher | B or higher
24 | Cc1cc(C(F)(C(F)(F)F)C(F)(F)F)ncc1NC(=O)c1cccc(I)c1C(=O)NC(C)(C)C[S+](C)[O-] (stereo not drawn) [Q27-152] | – | B or higher
25 | Cc1nc(C(F)(C(F)(F)F)C(F)(F)F)ccc1NC(=O)c1cccc(I)c1C(=O)NC(C)(C)C[S+](C)[O-] (stereo not drawn) [Q27-153] | B or higher | B or higher
26 | Cc1nc(C(F)(C(F)(F)F)C(F)(F)F)ccc1NC(=O)c1cccc(I)c1C(=O)NC(C)(C)CS(C)(=O)=O [Q27-155] | B or higher | B or higher
27 | CC(C)NC(=O)c1c(I)cccc1C(=O)Nc1ccc(C(F)(C(F)(F)F)C(F)(F)F)nc1Cl [Q27-230] | B or higher | B or higher
28 | CCN(CC)C(=O)c1c(I)cccc1C(=O)Nc1ccc(C(F)(C(F)(F)F)C(F)(F)F)nc1Cl [Q27-231] | B or higher | B or higher

Row | Compound | insecticidal effect (activity ranking by mortality) [1] | insecticidal effect (activity ranking by mortality) [2]
29 | CSCC(C)NC(=O)c1c(I)cccc1C(=O)Nc1ccc(C(F)(C(F)(F)F)C(F)(F)F)nc1Cl (stereo not drawn) [Q27-232] | B or higher | B or higher
30 | CSCC(C)(C)NC(=O)c1c(I)cccc1C(=O)Nc1ccc(C(F)(C(F)(F)F)C(F)(F)F)nc1 [Q27-233] | B or higher | B or higher
31 | CSCC(C)(C)NC(=O)c1c(I)cccc1C(=O)Nc1ccc(C(F)(C(F)(F)F)C(F)(F)F)nc1Cl [Q27-234] | B or higher | B or higher
32 | C[S+]([O-])CC(C)(C)NC(=O)c1c(I)cccc1C(=O)Nc1ccc(C(F)(C(F)(F)F)C(F)(F)F)nc1Cl (stereo not drawn) [Q27-235] | B or higher | B or higher
33 | CC(C)(CS(C)(=O)=O)NC(=O)c1c(I)cccc1C(=O)Nc1ccc(C(F)(C(F)(F)F)C(F)(F)F)nc1Cl [Q27-236] | B or higher | B or higher
34 | C[S+]([O-])CC(C)(C)NC(=O)c1c(I)cccc1C(=O)Nc1cccnc1C(F)(C(F)(F)F)C(F)(F)F (stereo not drawn) [Q27-238] | B or higher | B or higher
35 | CC(C)(CS(C)(=O)=O)NC(=O)c1c(I)cccc1C(=O)Nc1cccnc1C(F)(C(F)(F)F)C(F)(F)F [Q27-239] | B or higher | B or higher
36 | CSCC(C)(C)NC(=O)c1c(I)cccc1C(=O)Nc1c(Cl)cc(C(F)(C(F)(F)F)C(F)(F)F)nc1Cl [Q27-240] | B or higher | B or higher
37 | COc1nc(C(F)(C(F)(F)F)C(F)(F)F)ccc1NC(=O)c1cccc(I)c1C(=O)NC(C)CSC (stereo not drawn) [Q27-241] | B or higher | B or higher
38 | COc1nc(C(F)(C(F)(F)F)C(F)(F)F)ccc1NC(=O)c1cccc(I)c1C(=O)NC(C)C [Q27-242] | B or higher | B or higher
39 | CSCC(C)(C)NC(=O)c1c(I)cccc1C(=O)Nc1ccc(C(F)(C(F)(F)F)C(F)(F)F)nc1C [Q27-243] | B or higher | B or higher
40 | Cc1nc(C(F)(C(F)(F)F)C(F)(F)F)ccc1NC(=O)c1cccc(I)c1C(=O)NC(C)(C)C[S+](C)[O-] (stereo not drawn) [Q27-244] | B or higher | –
41 | CSCC(C)(C)NC(=O)c1c(I)cccc1C(=O)Nc1ccc(C(F)(C(F)(F)F)C(F)(F)F)nc1SC [Q27-245] | B or higher | B or higher
42 | CSc1nc(C(F)(C(F)(F)F)C(F)(F)F)ccc1NC(=O)c1cccc(I)c1C(=O)NC(C)C [Q27-246] | B or higher | B or higher
43 | CC(C)NC(=O)c1c(I)cccc1C(=O)Nc1ccc(C(F)(C(F)(F)F)C(F)(F)F)nc1[S+](C)[O-] (stereo not drawn) [Q27-247] | B or higher | B or higher
44 | CC(C)(CS(C)(=O)=O)NC(=O)c1c(I)cccc1C(=O)Nc1ccc(OC(C(F)(F)F)C(F)(F)F)nc1Cl [Q27-267] | B or higher | B or higher
45 | COc1nc(OC(C(F)(F)F)C(F)(F)F)ccc1NC(=O)c1cccc(I)c1C(=O)NC(C)(C)CSC [Q27-268] | B or higher | B or higher
46 | Cc1nc(OC(C(F)(F)F)C(F)(F)F)ccc1NC(=O)c1ccccc1C(=O)NC(C)(C)C[S+](C)[O-] (stereo not drawn) [Q27-289] | B or higher | B or higher
47 | Cc1nc(OC(F)(F)C(F)C(F)(F)F)ccc1NC(=O)c1cccc(I)c1C(=O)NC(C)C (stereo not drawn) [Q27-391] | B or higher | –
48 | CSCC(C)(C)NC(=O)c1c(I)cccc1C(=O)Nc1ccc(OC(F)(F)C(F)C(F)(F)F)nc1C (stereo not drawn) [Q27-393] | B or higher | –
49 | CSCC(C)(C)NC(=O)c1c(I)cccc1C(=O)Nc1ccc(OC(F)(F)C(F)C(F)(F)F)nc1C (stereo not drawn) [Q27-396] | B or higher | –
50 | CC(C)NC(=O)c1c(Cl)cccc1C(=O)Nc1ccc(C(F)(C(F)(F)F)C(F)(F)F)nc1Cl [Q27-459] | – | B or higher
51 | Cc1nc(Oc2ccc(C(F)(F)F)cc2)ccc1NC(=O)c1cccc(I)c1C(=O)NC(C)C [Q27-466] | – | B or higher
52 | CC(C)NC(=O)c1c(I)cccc1C(=O)Nc1c(Cl)ncnc1Cl [Q32-11] | B or higher | –
53 | COc1cc(OC)nc(NC(=O)c2ccccc2C(=O)NC(C)C)n1 [Q33-1] | B or higher | –
54 | COc1nc(NC(=O)c2cccc(I)c2C(=O)NC(C)C)nc(OC)c1C(F)(C(F)(F)F)C(F)(F)F [Q33-10] | B or higher | –
55 | CCN(CC)C(=O)c1c(I)cccc1C(=O)Nc1cnccn1 [Q34-30] | B or higher | –
